One compound from article PMC11968560 (Proteins, 2024) can be followed below.

The target in this test is T1, PfGrp94 (Plasmodium falciparum glucose-regulated protein 94 kDa, endoplasmin) (Plasmodium falciparum, UniProt Q8I0V4).
T1 sequence (Q8I0V4 22-821): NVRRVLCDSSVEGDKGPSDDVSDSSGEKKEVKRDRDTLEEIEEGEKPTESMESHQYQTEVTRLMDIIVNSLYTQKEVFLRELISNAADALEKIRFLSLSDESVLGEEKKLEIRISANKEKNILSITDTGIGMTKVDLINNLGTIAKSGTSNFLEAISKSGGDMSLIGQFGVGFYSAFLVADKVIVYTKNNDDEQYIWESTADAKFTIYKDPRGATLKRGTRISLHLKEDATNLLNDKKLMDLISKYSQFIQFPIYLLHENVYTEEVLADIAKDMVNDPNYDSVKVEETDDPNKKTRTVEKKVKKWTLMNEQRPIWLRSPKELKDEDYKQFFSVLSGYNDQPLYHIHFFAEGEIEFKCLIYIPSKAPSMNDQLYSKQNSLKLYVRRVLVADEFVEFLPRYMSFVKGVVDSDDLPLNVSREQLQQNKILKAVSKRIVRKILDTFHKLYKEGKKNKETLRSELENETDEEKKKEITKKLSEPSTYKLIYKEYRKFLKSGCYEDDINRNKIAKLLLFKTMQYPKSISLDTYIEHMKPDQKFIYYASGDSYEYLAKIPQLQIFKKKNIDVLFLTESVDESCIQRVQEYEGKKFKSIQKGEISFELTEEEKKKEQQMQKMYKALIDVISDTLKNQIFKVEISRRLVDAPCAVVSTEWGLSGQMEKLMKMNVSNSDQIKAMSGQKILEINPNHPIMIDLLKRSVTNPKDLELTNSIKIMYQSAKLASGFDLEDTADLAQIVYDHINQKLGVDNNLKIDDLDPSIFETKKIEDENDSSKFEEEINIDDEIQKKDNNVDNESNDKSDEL
Briefly: malachite green ATPase inhibition. In kind it is biochemical.

In turn, `CCNC(=O)[C@H]1O[C@@H](n2cnc3c(N)ncnc32)[C@H](O)[C@@H]1O` [NECA] showed an EC50 of 3.53 ± 1.5 µM.

As a reminder, the EC50 is the concentration at which the effect is half-maximal.
